Data published in article PMC2120445 (The Journal of Cell Biology, 1995).
Where two headings read alike, the source gives them in different places. Where no end group is shown, it is not given here.

Assays:
[1] = system: Schwann cells; conditions: cited from earlier work; for promotion of Schwann cell proliferation: rat sciatic nerve Schwann cells in culture, ref Eccleston, 1992, Ratner et al., 1988
[2] = system: PDGF receptor; conditions: ref Weinmaster and Lemke, 1990, cited from earlier work
[3] = system: erbB2 receptor; conditions: Schwann cells; ref Weinmaster and Lemke (1990), Mudge, 1993 (review); cited from earlier work
[4] = system: Schwann cells (rat sciatic nerve); format: cell-based; conditions: for doubling time: estimated from BrdU incorporation
[5] = system: sciatic nerve fibroblasts; assay: Proliferation of sciatic nerve fibroblasts induced by PDGF; format: cell-based, rat; conditions: Kahn and Mudge, unpublished results
[6] = system: Schwann cells (rat sciatic nerve); format: cell-based; conditions: for BrdU incorporation compared with forskolin: agent alone, without PDGF, pulsatile regime; for doubling time / cells synthesizing DNA in 24 h: in the presence of PDGF; for doubling time: estimated from cells synthesizing DNA; for cells synthesizing DNA in 24 h: increased from 10%, Discussion
[7] = system: Schwann cells (rat sciatic nerve); format: cell-based; conditions: for attenuation (desensitization) of cAMP response with time: Schwann cells, even in the presence of IBMX
[8] = system: cultured Schwann cells; conditions: ref Yasuda et al., 1988; cited from earlier work
[9] = system: macrophages; conditions: ref Wiik, 1989; Vignery et al., 1991; cited from earlier work
[10] = system: neutral endopeptidase 24.11; conditions: ref Davies et al., 1992; Turner, A. J., personal communication; cited from earlier work
[11] = system: sciatic nerve fibroblasts; assay: Intracellular cAMP accumulation in sciatic nerve fibroblasts; format: cell-based, rat; conditions: for dependence of cAMP effect on culture age: with IBMX, 2 d versus 7 d cultures, Fig. 2
[12] = cultured Schwann cells, ref Raff et al., 1978a,b, Ridley et al., 1989, Davis and Stroobant, 1990, Weinmaster and Lemke, Chen et al., 1991, Stewart et al., Goodearl et al., 1993, Marchionni et al.
[13] = with 10 ng/ml PDGF-BB, pulsatile, Fig. 6 b

Question: For CCCC(=O)Nc1ncnc2c1ncn2[C@@H]1O[C@@H]2COP(=O)(O)O[C@H]2[C@H]1OC(=O)CCC [dibutyryl cAMP], which “potentiation of response to growth factors” value [1, 12] is on record?
Answer: Its value is “greatly potentiated”.

Question: What does the source list for C=C[C@@]1(C)CC(=O)[C@]2(O)[C@@]3(C)[C@@H](O)CCC(C)(C)[C@@H]3[C@H](O)[C@H](OC(C)=O)[C@@]2(C)O1 [forskolin]?
Answer: synthesis of PDGF beta receptor [2]: increased synthesis; treatment time required to increase PDGF beta receptor mRNA [2]: 12 to 24 h; effect of a single 3-h pulse on PDGF beta receptor mRNA ([2]; single 3-h pulse): ineffective; erbB2 receptor expression [3]: upregulated; doubling time ([4]; 1 µM forskolin with PDGF, continuous): ~ 2 d; Schwann cells incorporating BrdU in 24 h ([4]; 1 µM forskolin with PDGF, continuous, range in at least 10 different experiments): 40-60%; effect on PDGF-induced proliferation of fibroblasts [5]: inhibits the proliferation of sciatic nerve fibroblasts induced by PDGF; increase in BrdU incorporation, together with PDGF ([6]; fold, with 10 ng/ml PDGF-BB, pulsatile, every 3 h with 3-h wash-out, Fig. 6 b): eightfold; type of interaction with PDGF [6, 13]: synergistic; DNA synthesis ([1]; 1 µM forskolin and PDGF, ref Stewart et al., 1991): no DNA synthesis; cells incorporating BrdU in 24 h ([1]; PDGF and 10 µM forskolin, ref Stewart et al., 1991): 6%; potentiation of response to growth factors [1, 12]: greatly potentiated

Question: Which results are given for CC(C)NCC(O)c1ccc(O)c(O)c1 (stereo not shown) [isoproterenol]?
Answer: dependence of cAMP response on culture age ([7]; 3-d versus 8-d cells, 5 min, Fig. 1): more pronounced in 8-d cells; attenuation (desensitization) of cAMP response with time ([7]; Fig. 4 a): declined with time in similar fashion to the CGRP response; BrdU incorporation compared with forskolin ([6]; Fig. 6 b): comparable to the effect of forskolin; doubling time ([6]; pulsatile): ~ 4 d; cells synthesizing DNA in 24 h ([6]; pulsatile): ~25%; type of interaction with PDGF [6, 13]: simply additive; plateau of cAMP effect [8]: did not plateau even at 10-4 M

Question: With “FGF-1: growth factor, literature mitogen” as the molecule, how does the “promotion of Schwann cell proliferation” value [1] read?
Answer: The value was “promote the proliferation”.

Question: With “FGF-2: growth factor, literature mitogen” as the molecule, how does the “promotion of Schwann cell proliferation” value [1] read?
Answer: The value was “promote the proliferation”.

Question: Which cAMP in macrophages [9] does the source give for calcitonin gene-related peptide [CGRP] here?
Answer: Its cAMP in macrophages is “increase cAMP levels in macrophages”.

Question: And the “substrate of neutral endopeptidase 24.11” value [10]?
Answer: Its value is “very good substrate”.

Question: What about the “desensitization at lower dose” value ([7]; 10^-8 M CGRP) of the same molecule?
Answer: The value was “desensitization was reduced with this dose”.

Question: And the “magnitude of cAMP response” value ([7]; 5 min with 5 x 10^-8 M CGRP without IBMX, Discussion)?
Answer: The value was 8-10 fold.

Question: And the “attenuation (desensitization) of cAMP response with time” value ([7]; Fig. 4 a)?
Answer: Its value is “declined rapidly, even in the presence of IBMX”.

Question: What about the “cAMP over basal after 1 h” value ([7]; maximal dose of CGRP, declined even in the presence of IBMX, Fig. 4 a) of the same molecule?
Answer: The value was “twofold”.

Question: And the “increase in cAMP over basal after 5 min” value ([7]; maximal dose of CGRP, without IBMX, high density, 4 d in defined medium, Fig. 4 a)?
Answer: Its value is “eightfold”.

Question: What about the “activity of CGRP after 3 h incubation with Schwann cells” value ([7]; medium from Schwann cells incubated with CGRP for 3 h transferred to fresh cultures, 5 min, Fig. 5) of the same molecule?
Answer: Its value is “a comparable stimulation of cAMP”.

Question: What about the “BrdU incorporation compared with forskolin” value ([6]; Fig. 6 b) of the same molecule?
Answer: The value was “comparable to the effect of forskolin”.

Question: And the doubling time ([6]; pulsatile)?
Answer: Its doubling time is ~ 4 d.

Question: And the “cells synthesizing DNA in 24 h” value ([6]; pulsatile)?
Answer: The value was roughly 25%.

Question: What about the “type of interaction with PDGF” value [6, 13] of the same molecule?
Answer: Its value is “synergistic”.

Question: What about the “effect together with PDGF compared with forskolin and PDGF” value ([6]; with PDGF, pulsatile, Fig. 6 b) of the same molecule?
Answer: Its value is “as effective as forskolin and PDGF”.

Question: And the “attenuation of cAMP response” value ([11]; compared with Schwann cells, 5 x 10-s M CGRP (so in the source), 200 µM IBMX, Fig. 4 b)?
Answer: The value was “even more rapid”.

Question: For cholera toxin, which “potentiation of response to growth factors” value [1] is on record?
Answer: The value was “greatly potentiated”.

Question: With glial growth factor [GGF] as the molecule, how does the “promotion of Schwann cell proliferation” value [1] read?
Answer: Its value is “promote the proliferation”.

Question: What about the “mitogenicity without forskolin / enhancement of GGF effect” value ([1]; ref Davis and Stroobant, 1990, Goodearl et al., 1993, Marchionni et al.) of the same molecule?
Answer: The value was “is a mitogen without forskolin”.

Question: Which “dependence of cAMP effect on culture age” value [11] does the source give for peptide histidine-isoleucine [PHI] here?
Answer: The value was “only seen in the older cultures”.

Question: What does the source list for “vasoactive intestinal peptide (HSDAVFTDNYTRLRKQMAVKKYLNSILN; ends and bridges not checked; UniProt P01282 125-152, looked up) [VIP]”?
Answer: cAMP in macrophages [9]: increase cAMP levels in macrophages; plateau of cAMP effect [8]: did not plateau even at 10-4 M; dependence of cAMP effect on culture age [11]: only seen in the older cultures

B1: PDGF: Recombinant human PDGF-BB purchased from R&D Systems (protein, UniProt P01127 82-190, looked up)
Platelet-derived growth …: SLGSLTIAEPAMIAECKTRTEVFEISRRLIDRTNANFLVWPPCVEVQRCSGCCNNRNVQCRPTQVQLRPVQVRKIEIVRKKPIFKKATVTLEDHLACKCETVAAARPVT
Question: For B1, which doubling time ([4]; PDGF alone) is on record?
Answer: The doubling time was 10 days.

Question: What about the “Schwann cells incorporating BrdU in 24 h” value ([4]; defined medium with PDGF alone (before forskolin), Discussion) of the same molecule?
Answer: The value was 10%.

Question: What about the “promotion of Schwann cell proliferation” value [1] of the same molecule?
Answer: Its value is “promote the proliferation”.
